The values that follow come from US20070012632A1, “Synergistic composition and method for inhibiting growth of microorganisms” (priority 2005, published 2007).

A value given as a limit tells only on which side of the number the result lay.

Common to all, as to assay type: cell-based
In experiment [1] the test system is total bacteria in paper mill white water. As to the kind of experiment: Total bacterial counts in white water, mill using mechanical pulp (Example 1). The conditions noted are these: 50 minutes contact time; for Total bacterial counts: white water. As to the method:
The furnish used in this mill is composed of about 50% TMP, 25% bleached Kraft pulp, and 25% broke. White water was collected and total bacterial counts were determined in samples with and without the addition of DMH stabilized chlorine (1:1 molar ratio of DMH to “Cl2) and/or PAA, after 50 minutes of contact time.

Experiment [2] shares this test system. As to the kind of experiment: Total bacterial counts in white water, mill using chemical pulp (Example 2). The conditions noted are these: 30 minutes contact time; for Total bacterial counts: white water. As to the method: The furnish used on this paper machine is composed of about 60% bleached Kraft pulp, and 40% broke. White water was collected and total bacterial counts were determined in samples with and without the addition of DMH stabilized chlorine (1:1 molar ratio of DMH to “Cl2”), and/or PAA, after 30 minutes of contact time.

For experiment [3] the test system is unchanged. As to the kind of experiment: Total bacterial counts in white water, very closed mill using chemical pulp (Example 3). Also on record: Total bacterial counts: unit not given here. To be noted: 30 minutes contact time; for Total bacterial counts: white water. Here is the method: The furnish used in this mill is composed of about 75% bleached Kraft pulp, and 25% broke. White water was collected and total bacterial counts were determined in samples with and without the addition of DMH stabilized chlorine (1:1 molar ratio of DMH to “Cl2”), and/or PAA, after 30 minutes of contact time.

As for `CC(=O)OO` [PAA, peracetic acid], the Total bacterial counts in experiment [1] (PAA 25 ppm product) is 4 × 10^6; in experiment [1] (PAA 50 ppm product), 3 × 10^5; in experiment [1] (PAA 100 ppm product) it was 3 × 10^3; in experiment [2] (PAA 2.5 ppm product) it was 5.8 × 10^6; in experiment [2] (PAA 5 ppm product), 1.1 × 10^6; in experiment [2] (PAA 10 ppm product) it was 5 × 10^4. Moreover, the Total bacterial counts in experiment [3] (PAA 50 ppm product) is reported as 4.5 × 10^6; in experiment [3] (PAA 75 ppm product) it was 1.6 × 10^6; in experiment [3] (PAA 100 ppm product), 3 × 10^5; in experiment [3] (PAA 150 ppm product), 10^3; in experiment [3] (PAA 200 ppm product), <10^2. Also, the “Concentration alone achieving >3-log reduction in bacterial counts” value in experiment [1] (biocide alone) is reported as 100 ppm; in experiment [2] (biocide alone) it was above 10 ppm. In addition, the “Concentration alone achieving 2-log reduction in bacterial counts” value in experiment [3] (biocide alone) is recorded as 150 ppm.
